Source: ChEMBL document CHEMBL1687741, “Population pharmacokinetics of lumefantrine in pregnant women treated with artemether-lumefantrine for uncomplicated Plasmodium falciparum malaria” (Antimicrob Agents Chemother, 2009)

Legend:
Type in all cases: ADME, organism-based
Homo sapiens [1] = assay: Intercompartmental clearance in pregnant human patient with uncomplicated multidrug-resistant Plasmodium falciparum malaria at 120 mg, po administered as 4 tablets BID for 3 days coadministered with 20 mg artemether by two-compartment population pharmacokinetic model; conditions: in vivo, 72 h
Homo sapiens [2] = assay: AUC (0 to infinity) in pregnant human patient with uncomplicated multidrug-resistant Plasmodium falciparum malaria at 120 mg, po administered as 4 tablets BID for 3 days coadministered with 20 mg artemether by two-compartment population pharmacokinetic model; design: dose 120 mg, time infinity, route oral; conditions: in vivo, 72 h
Homo sapiens [3] = assay: Apparent volume of distribution in pregnant human patient with uncomplicated multidrug-resistant Plasmodium falciparum malaria at 120 mg, po administered as 4 tablets BID for 3 days coadministered with 20 mg artemether by two-compartment population pharmacokinetic model; conditions: in vivo, 72 h
[4] = Drug concentration in pregnant human patient with uncomplicated multidrug-resistant Plasmodium falciparum malaria at 120 mg, po administered as 4 tablets BID for 3 days coadministered with 20 mg artemether; conditions: female, in vivo, read-out: Drug uptake
[5] = Cmax in pregnant human patient with uncomplicated multidrug-resistant Plasmodium falciparum malaria at 120 mg, po administered as 4 tablets BID for 4 days coadministered with 20 mg artemether measured after 7 days by two-compartment population pharmacokinetic model; design: dose 120 mg, route oral; conditions: female, in vivo
[6] = Drug concentration in pregnant human with uncomplicated multidrug-resistant Plasmodium falciparum malaria infection at 120 mg, po administered as 4 tablets BID for 3 days coadministered with 20 mg artemether; conditions: female, in vivo, read-out: Drug uptake
[7] = Cmax in venous plasma of pregnant human patient with uncomplicated multidrug-resistant Plasmodium falciparum malaria at 120 mg, po administered as 4 tablets BID for 5 days coadministered with 20 mg artemether measured on 7 days by two-compartment population pharmacokinetic model; design: dose 120 mg, route oral; conditions: female
[8] = Drug concentration in pregnant human patient with reappeared uncomplicated multidrug-resistant Plasmodium falciparum malaria infection at 120 mg, po administered as 4 tablets BID for 3 days coadministered with 20 mg artemether; conditions: female, in vivo, read-out: Drug uptake
[9] = Cmax in capillary plasma of pregnant human patient with uncomplicated multidrug-resistant Plasmodium falciparum malaria at 120 mg, po administered as 4 tablets BID for 5 days coadministered with 20 mg artemether measured on 7 days by two-compartment population pharmacokinetic model; design: dose 120 mg, route oral; conditions: female
Homo sapiens [10] = assay: Clearance in pregnant human patient with uncomplicated multidrug-resistant Plasmodium falciparum malaria at 120 mg, po administered as 4 tablets BID for 3 days coadministered with 20 mg artemether by two-compartment population pharmacokinetic model; conditions: in vivo, 72 h
[11] = Cmax in pregnant human patient with uncomplicated multidrug-resistant Plasmodium falciparum malaria at 120 mg, po administered as 4 tablets BID for 3 days coadministered with 20 mg artemether by two-compartment population pharmacokinetic model; design: dose 120 mg, route oral; conditions: female, in vivo
[12] = Drug concentration in pregnant human patient with uncomplicated multidrug-resistant Plasmodium falciparum malaria at 120 mg, po administered as 4 tablets BID for 3 days coadministered with 20 mg artemether measured after 7 days by two-compartment population pharmacokinetic model; conditions: female, in vivo, read-out: Drug uptake
Homo sapiens [13] = assay: Apparent peripheral volume of distribution in pregnant human patient with uncomplicated multidrug-resistant Plasmodium falciparum malaria at 120 mg, po administered as 4 tablets BID for 3 days coadministered with 20 mg artemether by two-compartment population pharmacokinetic model; conditions: in vivo, 72 h
[14] = Cmax in pregnant human patient with uncomplicated multidrug-resistant Plasmodium falciparum malaria at 120 mg, po administered as 4 tablets BID for 4 days coadministered with 20 mg artemether by two-compartment population pharmacokinetic model; design: dose 120 mg, route oral; conditions: female, in vivo
Homo sapiens [15] = assay: Absorption rate constant in pregnant human patient with uncomplicated multidrug-resistant Plasmodium falciparum malaria at 120 mg, po administered as 4 tablets BID for 3 days coadministered with 20 mg artemether by two-compartment population pharmacokinetic model; conditions: in vivo, 72 h
[16] = Cmax in pregnant human patient with uncomplicated multidrug-resistant Plasmodium falciparum malaria at 120 mg, po administered as 4 tablets BID for 5 days coadministered with 20 mg artemether measured after 7 days by two-compartment population pharmacokinetic model; design: dose 120 mg, route oral; conditions: female, in vivo
[17] = Cmax in pregnant human patient with uncomplicated multidrug-resistant Plasmodium falciparum malaria at 120 mg, po administered as 4 tablets BID for 5 days coadministered with 20 mg artemether by two-compartment population pharmacokinetic model; design: dose 120 mg, route oral; conditions: female, in vivo
Homo sapiens [18] = assay: Tlag in pregnant human patient with uncomplicated multidrug-resistant Plasmodium falciparum malaria at 120 mg, po administered as 4 tablets BID for 3 days coadministered with 20 mg artemether measured after 7 days by two-compartment population pharmacokinetic model; conditions: in vivo
Homo sapiens [19] = assay: Volume of distribution at steady state in pregnant human patient with uncomplicated multidrug-resistant Plasmodium falciparum malaria at 120 mg, po administered as 4 tablets BID for 3 days coadministered with 20 mg artemether by two-compartment population pharmacokinetic model; conditions: in vivo, 72 h
[20] = Terminal elimination half-life in pregnant human patient with uncomplicated multidrug-resistant Plasmodium falciparum malaria at 120 mg, po administered as 4 tablets BID for 3 days coadministered with 20 mg artemether by two-compartment population pharmacokinetic model; conditions: female, in vivo, read-out: beta t1/2 (converted)

Structure (SMILES): CCCCN(CCCC)CC(O)c1cc(Cl)cc2c1-c1ccc(Cl)cc1/C2=C/c1ccc(Cl)cc1 (stereo not given) [LUMEFANTRINE]
- CL (Homo sapiens [1]): 1.82 L/h
- AUC (Homo sapiens [2]): 472 µg·h/mL
- Vz (Homo sapiens [3]): 20.2 L
- concentration at 72 h [4]: 135 ng/mL
- Cmax [5]: 314 ng/mL
- concentration at 72 h [6]: 136 ng/mL
- Cmax [7]: 49 ng/mL
- concentration at 72 h [8]: 126 ng/mL
- Cmax [9]: 433 ng/mL
- CL (Homo sapiens [10]): 6.11 L/h
- Cmax [11]: 2080 ng/mL
- concentration at 168 h [12]: 391 ng/mL
- Vp/F (Homo sapiens [13]): 160 L
- Cmax [14]: 2480 ng/mL
- Ka (Homo sapiens [15]): 0.0588 h⁻¹
- Cmax [16]: 498 ng/mL
- Cmax [17]: 2430 ng/mL
- Time (Homo sapiens [18]): 1.67 h
- Vz (Homo sapiens [19]): 181 L
- half-life [20]: 79.2 h
